Source: US20020018778A1, “Passive desensitization” (priority 1999, published 2002)

These sequences were tested on serum IgE from patients with documented peanut hypersensitivity (assay: IgE immunoblot mapping of human IgE binding epitopes on synthesized peanut antigen peptides). Conditions: Ara h 3 epitope; 10 patients tested.
Experimental: (§1) IGE IMMUNOBLOT ANALYSIS: Membranes to be blotted were prepared either by SDS-PAGE (performed by the method of Laemmli Nature 227:680-685, 1970; incorporated herein by reference) of digested peanut antigen or by synthesis of antigen peptides on a derivativized cellulose membrane. SDS-PAGE gels were composed of 10% acrylamide resolving gel and 4% acrylamide stacking gel. Electrophoretic transfer and immunoblotting on nitrocellulose paper was performed by the procedures of Towbin (Proc. Natl. Acad. Sci. USA 76:4350-4354, 1979; incorporated herein by reference).
[…] […] At least 5 ml of venous blood was drawn from each patient and allowed to clot, and the serum was collected. All studies were approved by the Human Use Advisory Committee at the University of Arkansas for Medical Sciences. Serum was diluted in a solution containing TBS and 1% bovine serum albumin and incubated with antigen for at least 12 h at 4° C. or for 2 h at room temperature. The bound primary antibody was detected with ^125I-labeled anti-IgE antibody (Sanofi Diagnostics Pasteur Inc., Paris, France).
PEPTIDE SYNTHESIS: Individual peptides were synthesized on a derivativized cellulose membrane using Fmoc amino acid active esters according to the manufacturer's instructions (Genosys Biotechnologies, Woodlands, Tex.). Fmoc-amino acid derivatives were dissolved in 1-methyl-2-pyrrolidone and loaded on marked spots on the membrane. Coupling reactions were followed by acetylation with a solution of 4% (v/v) acetic anhydride in N,N-dimethyl formamide (DMF). After acetylation, Fmoc groups were removed by incubation of the membrane in 20% (v/v) piperdine in DMF. The membrane was then stained with bromophenol blue to identify the location of the free amino groups. Cycles of coupling, blocking, and deprotection were repeated until the peptides of the desired length were synthesized. After addition of the last amino acid in the peptide, the amino acid side chains were deprotected using a solution of dichloromethane/trifluoroacetic acid/triusobutylsilante (1/10/0.05). Membranes were either probed immediately or stored at −20° C. until needed.
In the case of VTVRGGLRTLSPDRK [Ara h 3 epitope 3], the “patients whose serum IgE recognized the epitope” value is reported as 10.

Same assay, conditions: human IgE binding epitopes in Ara h 3
With DEDEYEYDEEDRRRG [Ara h 3 epitope 4] the “FRACTION OF PATIENTS WITH IGE THAT BIND” value was 4 (38%).
In the case of GNIFSGFTPEFLEQA [Ara h 3 epitope 2], the “FRACTION OF PATIENTS WITH IGE THAT BIND” value is reported as 2 (38%).
With IETWNPNNQEFECAG [Ara h 3 epitope 1] the “FRACTION OF PATIENTS WITH IGE THAT BIND” value was 1 (25%).
With VTVRGGLRTLSPDRK [Ara h 3 epitope 3] the “FRACTION OF PATIENTS WITH IGE THAT BIND” value was 3 (100%).

The sequences below were run on serum IgE from mice sensitized to recombinant Ara h 2 (assay: IgE immunoblot mapping of murine IgE binding epitopes in Ara h 2). Conditions: mouse Ara h 2 epitopes; densitometric analysis of the blot.
Experimental: as §1
For mapping of murine IgE binding sites, a blot containing overlapping 13 mer peptides, offset by 2 amino acids, was incubated with serum from peanut sensitized mice as described in U.S. patent application Ser. No. 09/455,294, filed Dec. 6, 1999; incorporated herein by reference.
PEPTIDE SYNTHESIS: Individual peptides were synthesized on a derivativized cellulose membrane using Fmoc amino acid active esters according to the manufacturer's instructions (Genosys Biotechnologies, Woodlands, Tex.). Fmoc-amino acid derivatives were dissolved in 1-methyl-2-pyrrolidone and loaded on marked spots on the membrane. Coupling reactions were followed by acetylation with a solution of 4% (v/v) acetic anhydride in N,N-dimethyl formamide (DMF). After acetylation, Fmoc groups were removed by incubation of the membrane in 20% (v/v) piperdine in DMF. […]
With RCQSQLERA [mouse Ara h 2 epitope (3)] the “contribution to the observed IgE reactivity, single epitope” value was “about 15%”.

These sequences were tested on T cell preparations (assay: T cell stimulation by 5/20 native Ara h 2 peptides). Conditions: analysis of 15 patients.
Format: cell-based, human
Experimental: Each peptide was tested, using standard techniques, on 19 different T cell preparations. Positive scores, defined as a T cell stimulation index of >2, are indicated by shading.
Each of these peptides was tested for its ability to stimulate T cells. Each peptide was tested, using standard techniques, on 19 different T cell preparations. Positive scores, defined as a T cell stimulation index of >2, are indicated by shading.
As discussed herein, it may sometimes be desirable to prepare blocking agent compositions comprising antigen fragments (e.g., IgE binding site and one or more T cell epitopes).
In the case of ALALFLLAAHASARQQWELQ [Peptide 2], the “single IgE site and T cell epitope in the same peptide” value (from here on “single IgE site and T cell epitope”) is reported as “both a single IgE site and a T cell epitope recognized by at least one person”.
For LLAAHASARQQWELQGDRRC [Peptide 3], the “single IgE site and T cell epitope” value was “both a single IgE site and a T cell epitope recognized by at least one person”.
In the case of LMQKIQRDEDSYERDPYSPS [Peptide 10], the “single IgE site and T cell epitope” value is reported as “both a single IgE site and a T cell epitope recognized by at least one person”.
With LTILVALALFLLAAHASARQ [Peptide 1] the “single IgE site and T cell epitope” value was “both a single IgE site and a T cell epitope recognized by at least one person”.
For PCEQHLMQKIQRDEDSYERD [Peptide 9], the “single IgE site and T cell epitope” value was “both a single IgE site and a T cell epitope recognized by at least one person”.
For RANLRPCEQHLMQKIQRDED [Peptide 8], the “single IgE site and T cell epitope” value was “both a single IgE site and a T cell epitope recognized by at least one person”.
